In patent US20070015815A1, “Hydrazide substrate shuts down protein biosynthesis capability in cells that host a metastatic or malignant disease mechanism” (priority 2003, published 2007):
Like-named read-outs stand apart in the source and are kept apart here.

Tests used:
[1] = system: bacterial gastroenteritis; assay: bacterial gastroenteritis of the applicant; type: in vivo, human; conditions: 100 mg dose with warm tap water
[2] = system: fetal cells; type: in vivo; conditions: offspring
[3] = system: influenza; assay: influenza of the applicant; type: in vivo, human; conditions: small dose
Excerpt: Such irreversible substrate concept has been postulated as an oxidase enzyme inhibitor which the applicant agrees is correct in context that such is a protease inhibitor and not an oxidase inhibitor. Such concept provides a hypothesis that logically explains all hydrazide biological prior art phenomena and can predict the prodrug type irreversible substrate action of any simple or low molecular weight hydrazide molecule. The irreversible substrate type protease inhibitor idea is also in agreement with the antidepressant drug explanation and working model, and the Malazide explanation and working model, and was predicted and illustrated by the mouse fetus experiment, and additionally concurs with the Marboran antiviral working model and explanation. […] And following a long period of time where no research was conducted due to family tragedies and related obstruction, the applicant returned to such work where the MAOI type hydrazide, Iproniazid, was then successfully used to target and shutdown protein biosynthesis in cells that hosted malignant disease mechanisms comprising various types of cancers and viral infections. […]

[4] = in vivo; cited from earlier work
[5] = system: Kaposi's Sarcoma; assay: Kaposi's Sarcoma of the applicant; parameters: species or system human; conditions: in vivo
[6] = system: HIV; type: in vivo, human
[7] = system: tuberculosis organism; conditions: Fox, 1952; cited from earlier work
[8] = system: basal cell carcinoma; assay: basal cell carcinoma of the applicant; type: in vivo, human; conditions: during the melanoma treatment
Excerpt: A second more benign cancer growth coexisted at the same time while the melanoma treatment was ongoing which was of the basal cell carcinoma type which was not very noticeable, bothersome, or believed to be life threatening, but which also disappeared following the hydrazide melanoma treatment. The basal cell carcinoma was located below the left eye on the applicant's cheek which was characterized by a hard, gritty, cellular formation where scratching or rubbing the surface would dislodge some of the small hard cells which is a common characteristic of basal cell carcinoma. Although the condition was not apparent or at a life threatening stage at the time, and had never raised concerns or the idea of providing opportunity for Iproniazid screening as the melanoma cancer did, it was nevertheless inadvertently shutdown by Iproniazid and had likewise disappeared. Such successful use of Iproniazid as a cancer treatment method constitutes a new cancer treatment use for the MAOI hydrazide product.

[9] = Public Health Service Pub. No.1589 (1967); cited from earlier work
[10] = cited from earlier work
[11] = system: polio; conditions: Thompson, about 1953; cited from earlier work
[12] = system: smallpox; conditions: Thompson, about 1953; cited from earlier work
[13] = 1500 mg to 3000 mg daily; cited from earlier work
[14] = system: viral conjunctivitis; assay: viral conjunctivitis of the applicant; type: in vivo, human; conditions: single dose of about 100 mg
[15] = system: malignant melanoma; assay: malignant melanoma of the applicant; type: in vivo, human; conditions: about 100 mg daily for about three or four weeks
Excerpt: The MAOI hydrazide anticancer concept was reduced to practice by the applicant when an impromptu opportunity appeared after a decade old mole began to metastasize. The growth was about a half inch in diameter located in the center of the applicant's forehead, and had remained stable, symmetrical, and unchanged for years when it began to increase in size, shape, and having mixed pigmentation indicative of malignant melanoma. At such time the applicant began a treatment regimen based on Iproniazid Phosphate at about 100 mg daily for about three or four weeks when the perimeter of the growth began to separate from the skin surface underneath and itch. The applicant would unconsciously pick at the protruding edge as if picking at a scab which served to more quickly separate the neoplastic part at its perimeter where sections were peeled away.

CC(C)NNC(=O)c1ccncc1 [Iproniazid, Isonicotinic acid 2-isopropylhydrazide]
time until all pain and griping had disappeared [1]: ≤ 10 min
time until most pain was gone [1]: ≤ 5 min
outcome of fetal cell division and growth shutdown in pregnant mice [2]: birth of all healthy mice that matured normally to provide midget size adults
effect on influenza [3]: very rapid recovery
cytotoxic effects [4]: no cytotoxic effects
effect on Kaposi's Sarcoma [5]: inhibit and shutdown
outcome after completed treatment study ([6]; after planned research was completed): the virus was eradicated in total
tuberculostatic activity [7]: did not appear to kill the tuberculosis organism
effect on basal cell carcinoma [8]: disappeared
lethal dose for mice [9]: 1760 mg/kg

NNC(=O)c1ccncc1 [Isoniazid, Isonicotinic acid hydrazide]
tuberculostatic activity [7]: exceeded all other substances screened
fraction converted by metabolism to the hydrazide (acetyl) metabolite ([10]; in vivo): 50%

CN1C(=O)C(=NNC(N)=S)c2ccccc21 [Marboran, 1-Methylindole-2,3,-dione 3 thiosemicarbazone]
antiviral action against polio [11]: effective
antiviral action against smallpox [12]: effective
side effects accompanying use [13]: nausea and vomiting

NN [hydrazine]
fraction converted by metabolism to the hydrazide (acetyl) metabolite ([10]; Fox): about 50%

Iproniazid phosphate
effect on viral conjunctivitis [14]: disappearance of the inflamation of the conjunctiva
effect on malignant melanoma growth [15]: removed in total
course after the single dose ([6]; after several weeks): the virus begin to return
effect of initial single dose on HIV viral activity ([6]; single dose of about 100 mg, applicant): shutdown the viral activity seemingly in total
